system: HCT116 p53+/+; assay: MTT cytotoxicity assay (Example 1); assay type: cell-based; conditions: Homo sapiens, HCT-116, 72 h, MTT, 72 h
Source text: (§1) Human breast cancer cells MDA-MB-435 were purchased from the American Type Culture Collection (Manassas, Va.). The HCT116 p53+/+ and HCT116 p53−/− cells were kindly provided by Dr. Bert Vogelstein (Johns Hopkins Medical Institutions, Baltimore, Md.). The human ovarian carcinoma cell line (HEY) which is naturally resistant to cisplatin, was kindly provided by Dr. Louis Dubeau, University of Southern California (USC) Norris Cancer Center, and NIH3T3 normal mouse fibroblast cells were kindly provided by Dr. Michael Press from USC. HEY and NIH3T3 cells were maintained as monolayer cultures in RPMI, HCT 116 cells in McCoy1s5A media and MDA-MB 435 in DMEM. Media were purchased from (Mediatech, Virginia) and supplemented with 10% fetal bovine serum (Gemini-Bioproducts, Woodland, Calif.), 2 mM L-glutamine and 5% Penicillin/streptomycin from Bio whittaker were purchased from VWR. Cells were incubated at 37° C. in a humidified atmosphere of 5% CO2. To remove the adherent cells from the flask for passaging and counting, cells were washed with PBS without calcium or magnesium, incubated with a small volume of 0.25% trypsin-EDTA solution (Sigma-Aldrich, St. Louis, Mo.) for 5-10 min, and washed with culture medium and centrifuged. All experiments were performed using cells at exponential growth stage. Cells were routinely checked for mycoplasma contamination using a PCR-based assay (Stratagene, Tex., USA).
(§2) Stock solutions (10 mM) of all compounds were prepared in DMSO and stored at −20° C. Further dilutions were made fresh in PBS or cell-culture media right before cell treatment.
(§3) Cytotoxicity was assessed by a 3-(4,s-dimethylthiazol-2-yl)-2,5-diphenyltetrazolium bromide (MTT) assay as previously described.^24 Briefly, cells were seeded in 96-well microtiter plates and allowed to attach overnight. Cells were subsequently treated with continuous exposure to the corresponding drug for 72 h. A MTT solution (at a final concentration of 0.5 mglml) was added to each well, and cells were incubated for 4 h at 37° C. After removal of the medium, DMSO was added and the absorbance was read at 570 nm. All assays were done in triplicate. The IC50 was then determined for each drug from a plot of log (drug concentration) versus percentage of cells killed.

| Structure (SMILES) | IC50 [µM] |
| --- | --- |
| Oc1ccc(Br)cc1/C=N/Nc1nc2nonc2nc1Nc1ccc(F)cc1 [Compound 2] | < 3 |

same assay, conditions: MTT, 72 h

| Structure (SMILES) | IC50 [µM] |
| --- | --- |
| Oc1ccc(Br)cc1/C=N/Nc1nc2nonc2nc1Nc1ccc(F)cc1 [Compound 2] | 1.5 ± 1 |

system: HCT116 p53−/−; assay: MTT cytotoxicity assay (Example 1); assay type: cell-based; conditions: Homo sapiens, HCT-116, 72 h, MTT, 72 h
Source text: as §1, §2, §3

| Structure (SMILES) | IC50 [µM] |
| --- | --- |
| Oc1ccc(Br)cc1/C=N/Nc1nc2nonc2nc1Nc1ccc(F)cc1 [Compound 2] | < 3 |

same assay, conditions: MTT, 72 h

| Structure (SMILES) | IC50 [µM] |
| --- | --- |
| Oc1ccc(Br)cc1/C=N/Nc1nc2nonc2nc1Nc1ccc(F)cc1 [Compound 2] | 1.8 ± 0.7 |

system: HCT116 p53+/+; assay: MTT cytotoxicity assay (Example 2); assay type: cell-based; conditions: Homo sapiens, HCT-116, 72 h, MTT, 72 h; read-out: IC50 Hct116 p53+/+
Source text: (§4) Human breast cancer cell lines MDA-MB-435 and SkBr-3 were purchased from the American Type Culture Collection (Manassas, Va.). The HCT116 P53+/+ and HCT116 P53−/− cell lines were kindly provided by Dr. Bert Vogelstein (Johns Hopkins Medical Institutions, Baltimore, Md.). The HEY human ovarian carcinoma cell line was kindly provided by Dr. Louis Dubeau (University of Southern California Norris Cancer Center). Cells were maintained as monolayer cultures in media supplemented with 10% fetal bovine serum (Gemini-Bioproducts, Woodland, Calif.) and 2 mmo/lL-glutamine at 37° C. in a humidified atmosphere of 5% C02. To remove the adherent cells from the flask for passaging and counting, cells were washed with PBS without calcium or magnesium, incubated with a small volume of 0.25% trypsin-EDTA solution (Sigma-Aldrich, St. Louis, Mo.) for 5-10 min, and washed with culture medium and centrifuged. All experiments were performed using cells in exponential growth stage. Cells were routinely checked for mycoplasma contamination using a PCR-based assay (Stratagene, Cambridge, UK).
(§5) Stock solutions (10 mM) of all compounds were prepared in DMSO and stored at −20° C. Further dilutions were made fresh in cell-culture media just prior to cell treatment.
(§6) Cytotoxicity was assessed by a 3-(4,5-dimethylthiazol-2-yl)-2,5-diphenyltetrazolium bromide (MTT) assay as previously described.^23 Cells were seeded in 96-well plates and allowed to attach overnight. Cells were subsequently treated with continuous exposure to the corresponding drug for 72 h. An MTT solution (at a final concentration of 0.5 mg/ml) was added to each well, and cells were incubated for 4 h at 37° C. After removal of the medium, DMSO was added and the absorbance was read at 570 nm. All assays were performed in triplicate. The IC50 was determined for each drug from a plot of log (drug concentration) versus percentage of cells killed.

| Structure (SMILES) | IC50 [µM] |
| --- | --- |
| Cc1cc(C)nc(NC(=N)Nc2ccc(Cl)cc2C(=O)c2ccccc2)n1 [2-SMD6-4] | 2.2 ± 0.8 |
| CCCOc1ccc(NC(=N)Nc2nc(C)cc(C)n2)cc1 [3-SMD6-5] | > 10 |
| Cc1cc(C)nc(NC(=N)Nc2ccc(Cl)c(C(F)(F)F)c2)n1 [4-SMD6-8] | 1.6 ± 0.4 |
| COC(=O)/C=C1/N=C(Nc2nc3ccccc3s2)NC1=O [5-SMD18] | < 10 |
| CCOC(=O)Cc1cc(=O)nc(Nc2nc3ccccc3s2)[nH]1 [6-SMD18-1] | 3.4 ± 0.2 |

same assay, conditions: MTT, 72 h; read-out: IC50 Hct116 p53+/+

| Structure (SMILES) | IC50 [µM] |
| --- | --- |
| COC(=O)/C=C1/N=C(Nc2nc3ccccc3s2)NC1=O [5-SMD18] | 7.2 ± 0.1 |

system: MDA-MB-435; assay: MTT cytotoxicity assay (Example 2); assay type: cell-based; conditions: Homo sapiens, MDA-MB-435, 72 h
Source text: as §4, §5, §6

| Structure (SMILES) | IC50 [µM] |
| --- | --- |
| Cc1cc(C)nc(NC(=N)Nc2ccc(Cl)cc2C(=O)c2ccccc2)n1 [2-SMD6-4] | > 10 |
| CCCOc1ccc(NC(=N)Nc2nc(C)cc(C)n2)cc1 [3-SMD6-5] | > 10 |
| COC(=O)/C=C1/N=C(Nc2nc3ccccc3s2)NC1=O [5-SMD18] | 7 ± 1.1 |
| CCOC(=O)Cc1cc(=O)nc(Nc2nc3ccccc3s2)[nH]1 [6-SMD18-1] | 9.5 |

system: HCT116 p53−/−; assay: MTT cytotoxicity assay (Example 2); assay type: cell-based; conditions: Homo sapiens, HCT-116, 72 h
Source text: as §4, §5, §6

| Structure (SMILES) | IC50 [µM] |
| --- | --- |
| Cc1cc(C)nc(NC(=N)Nc2ccc(Cl)cc2C(=O)c2ccccc2)n1 [2-SMD6-4] | 2.1 ± 0.1 |
| CCCOc1ccc(NC(=N)Nc2nc(C)cc(C)n2)cc1 [3-SMD6-5] | 8.1 ± 0.6 |
| Cc1cc(C)nc(NC(=N)Nc2ccc(Cl)c(C(F)(F)F)c2)n1 [4-SMD6-8] | 2.1 ± 0.5 |
| COC(=O)/C=C1/N=C(Nc2nc3ccccc3s2)NC1=O [5-SMD18] | 6.5 |
| CCOC(=O)Cc1cc(=O)nc(Nc2nc3ccccc3s2)[nH]1 [6-SMD18-1] | 4 ± 2 |

system: HCT p53+/+ cells; assay: Colony formation assay; assay type: cell-based; conditions: several doses
Description: (§7) Colony formation assays were also performed to confirm the activity of these compounds as described.^1,25 Briefly, cells were plated in 6-well plates at a density of 500 cells/well and allowed to attach. The next day, serial dilutions of the corresponding compounds were added and allowed to incubate for 24 h. After exposure, cells were washed in PBS and cultured in drug-free media until colonies were formed (8-10 days). Cells were subsequently washed, fixed with a 1% glutaraldehyde solution for 30 min, and stained with a solution of crystal violet (2%) for 30 min. After staining, cells were thoroughly washed with water. Colonies were imaged on the ChemiDoc Imaging System (Bio-Rad) and counted using the Quantity One quantitation software package (Bio-Rad). The data reported represent means of at least three independent experiments.

| Structure (SMILES) | toxic effect in colony formation assay |
| --- | --- |
| Oc1ccc(Br)cc1/C=N/Nc1nc2nonc2nc1Nc1ccc(F)cc1 [Compound 2] | significant toxic effect |

system: HEY; assay: MTT cytotoxicity assay (Example 2); assay type: cell-based, human; conditions: 72 h
Source text: as §4, §5, §6

| Structure (SMILES) | IC50 [µM] |
| --- | --- |
| COC(=O)/C=C1/N=C(Nc2nc3ccccc3s2)NC1=O [5-SMD18] | 7.2 ± 0.2 |

same assay, conditions: Homo sapiens, 72 h

| Structure (SMILES) | IC50 [µM] |
| --- | --- |
| Cc1cc(C)nc(NC(=N)Nc2ccc(Cl)cc2C(=O)c2ccccc2)n1 [2-SMD6-4] | 2.5 ± 0.4 |
| CCCOc1ccc(NC(=N)Nc2nc(C)cc(C)n2)cc1 [3-SMD6-5] | > 10 |
| Cc1cc(C)nc(NC(=N)Nc2ccc(Cl)c(C(F)(F)F)c2)n1 [4-SMD6-8] | 2.2 ± 0.3 |
| COC(=O)/C=C1/N=C(Nc2nc3ccccc3s2)NC1=O [5-SMD18] | < 10 |

system: SkBr-3; assay: MTT cytotoxicity assay (Example 2); assay type: cell-based, human; conditions: 72 h
Source text: as §4, §5, §6

| Structure (SMILES) | IC50 [µM] |
| --- | --- |
| COC(=O)/C=C1/N=C(Nc2nc3ccccc3s2)NC1=O [5-SMD18] | 2.5 ± 0.8 |

same assay, conditions: Homo sapiens, SK-BR-3, 72 h

| Structure (SMILES) | IC50 [µM] |
| --- | --- |
| Cc1cc(C)nc(NC(=N)Nc2ccc(Cl)cc2C(=O)c2ccccc2)n1 [2-SMD6-4] | 7.4 ± 0.5 |
| CCCOc1ccc(NC(=N)Nc2nc(C)cc(C)n2)cc1 [3-SMD6-5] | > 10 |
| Cc1cc(C)nc(NC(=N)Nc2ccc(Cl)c(C(F)(F)F)c2)n1 [4-SMD6-8] | 2.5 ± 0.5 |
| CCOC(=O)Cc1cc(=O)nc(Nc2nc3ccccc3s2)[nH]1 [6-SMD18-1] | > 10 |

system: panel of cancer cell lines; assay: MTT cytotoxicity, panel of cancer cell lines (Example 2); assay type: cell-based; conditions: certain cancer cell lines
Source text: as §4, §5, §6

| Structure (SMILES) | IC50 [µM] |
| --- | --- |
| Cc1cc(C)nc(NC(=N)Nc2ccc(Cl)cc2C(=O)c2ccccc2)n1 [2-SMD6-4] | < 3 |
| Cc1cc(C)nc(NC(=N)Nc2ccc(Cl)c(C(F)(F)F)c2)n1 [4-SMD6-8] | < 3 |

system: HEY cells; assay: Colony formation assay; assay type: cell-based, human; conditions: several doses
Description: as §7

| Structure (SMILES) | toxic effect in colony formation assay |
| --- | --- |
| Oc1ccc(Br)cc1/C=N/Nc1nc2nonc2nc1Nc1ccc(F)cc1 [Compound 2] | significant toxic effect |

system: NIH3T3; assay: MTT cytotoxicity assay (Example 1); assay type: cell-based, mouse; conditions: 72 h
Source text: as §1, §2, §3

| Structure (SMILES) | IC50 [µM] |
| --- | --- |
| Oc1ccc(Br)cc1/C=N/Nc1nc2nonc2nc1Nc1ccc(F)cc1 [Compound 2] | 6 ± 1.4 |

same assay, conditions: Mus musculus, NIH3T3, 72 h

| Structure (SMILES) | IC50 [µM] |
| --- | --- |
| Oc1ccc(Br)cc1/C=N/Nc1nc2nonc2nc1Nc1ccc(F)cc1 [Compound 2] | 8 |

— US8445677B2, “Substituted pyrimidyl guanidine derivatives having anticancer activity” (University of Southern California, priority 2008, dated 2013)
